Measured values from patent US20240041042A1, “1-(PYRIDYL)-5-AZINYLPYRAZOLE DERIVATIVES, AND THEIR USE FOR CONTROL OF UNDESIRED PLANT GROWTH” (Bayer Aktiengesellschaft, priority 2020, published 2024).

Key:
Assay type in all cases: in vivo
[1] = system: Setaria viridis (SETVI); test: Pre-emergence herbicidal action against SETVI
Method in brief: (§1)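 Pre-emergence soil-surface spray of compound, formulated as wettable powder or emulsion concentrate, in aqueous suspension or emulsion with 0.5% additive (600 l/ha; rate 320 g/ha or less). Activity rated visually after roughly 3 weeks in the greenhouse as a percentage of untreated controls, 0% meaning no difference.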

[2] = system: Echinochloa crus-galli (ECHCG); test: Pre-emergence herbicidal action against ECHCG
Method in brief: as §1

[3] = system: Echinochloa crus-galli (ECHCG); test: Post-emergence herbicidal action against ECHCG
Method in brief: (§2)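 Rates were 320 g/ha or below, applied as aqueous WP/EC spray with 0.5% additive (600 l/ha) onto one-leaf-stage plants. About 3 weeks later in the greenhouse, damage was scored visually against untreated plants on a 0–100% scale, where 100% means plants died.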

[4] = system: Pharbitis purpurea (PHBPU); test: Pre-emergence herbicidal action against PHBPU
Method in brief: as §1

[5] = system: Lolium rigidum (LOLRI); test: Post-emergence herbicidal action against LOLRI; details: dosage 320 g/ha
Method in brief: as §2

[6] = system: Viola tricolor (VIOTR); test: Pre-emergence herbicidal action against VIOTR
Method in brief: as §1

[7] = system: Alopecurus myosuroides (ALOMY); test: Post-emergence herbicidal action against ALOMY; details: visual rating about 3 weeks after treatment vs untreated controls (100% = plants have died, 0% = like control plants)
Method in brief: as §2

[8] = system: Matricaria inodora (MATIN); test: Pre-emergence herbicidal action against MATIN
Method in brief: as §1

[9] = system: Pharbitis purpurea (PHBPU); test: Post-emergence herbicidal action against PHBPU
Method in brief: as §2

[10] = system: Polygonum convolvulus (POLCO); test: Pre-emergence herbicidal action against POLCO
Method in brief: as §1

[11] = system: Abutilon theophrasti (ABUTH); test: Pre-emergence herbicidal action against ABUTH; details: Dosage column 320 g/ha (title prints 3200 g/ha); scored visually after about 3 weeks; 100% = plants have died
Method in brief: as §1

[12] = system: Avena fatua (AVEFA); test: Pre-emergence herbicidal action against AVEFA; details: 320 g/ha, visual scoring after about 3 weeks vs untreated controls
Method in brief: as §1

[13] = system: Viola tricolor (VIOTR); test: Post-emergence herbicidal action against VIOTR
Method in brief: as §2

[14] = system: Verconica persica (VERPE); test: Pre-emergence herbicidal action against VERPE; details: dosage 320 g/ha
Method in brief: as §1

[15] = system: Alopecurus myosuroides (ALOMY); test: Pre-emergence herbicidal action against ALOMY; details: scored visually after about 3 weeks, 100% = plants have died
Method in brief: as §1

[16] = system: Setaria viridis (SETVI); test: Post-emergence herbicidal action against SETVI
Method in brief: as §2

[17] = system: Amaranthus retroflexus (AMARE); test: Pre-emergence herbicidal action against AMARE; details: visual scoring after about 3 weeks vs untreated controls
Method in brief: as §1

[18] = system: Verconica persica (VERPE); test: Post-emergence herbicidal action against VERPE
Method in brief: as §2

[19] = system: Lolium rigidum (LOLRI); test: Pre-emergence herbicidal action against LOLRI; details: dosage 320 g/ha
Method in brief: as §1

[20] = system: Matricaria inodora (MATIN); test: Post-emergence herbicidal action against MATIN
Method in brief: as §2

CCOC(=O)COc1nn(-c2ncccc2C)c(-c2cncc(F)c2)c1Br [Example I-211]
Pre-emergence action against SETVI in % ([1]; dosage 80 g/ha): 90% | Pre-emergence action against SETVI in % ([1]; dosage 320 g/ha): 100% | Pre-emergence action against ECHCG in % ([2]; dosage 80 g/ha): 90% | Pre-emergence action against ECHCG in % ([2]; dosage 320 g/ha): 100% | Post-emergence action against ECHCG in % ([3]; dosage 80 g/ha): 80% | Post-emergence action against ECHCG in % ([3]; dosage 320 g/ha): 80% | Pre-emergence action against PHBPU in % ([4]; dosage 80 g/ha): 90% | Pre-emergence action against PHBPU in % ([4]; dosage 320 g/ha): 90% | Post-emergence action against LOLRI in % [5]: 80% | Pre-emergence action against VIOTR in % ([6]; 320 g/ha, Viola tricolor): 100% | Pre-emergence action against VIOTR in % ([6]; dosage 80 g/ha): 90% | Post-emergence action against ALOMY in % ([7]; 80 g/ha): 80% | Post-emergence action against ALOMY in % ([7]; 320 g/ha): 90% | Pre-emergence action against MATIN in % ([8]; dosage 80 g/ha): 90% | Pre-emergence action against MATIN in % ([8]; dosage 320 g/ha): 90% | Post-emergence action against PHBPU in % ([9]; dosage 80 g/ha): 90% | Post-emergence action against PHBPU in % ([9]; dosage 320 g/ha): 100% | Pre-emergence action against POLCO in % ([10]; dosage 80 g/ha): 90% | Pre-emergence action against POLCO in % ([10]; dosage 320 g/ha): 90% | Pre-emergence action against ABUTH [11]: 80% | Pre-emergence action against AVEFA in % [12]: 90% | Post-emergence action against VIOTR in % ([13]; 80 g/ha): 80% | Post-emergence action against VIOTR in % ([13]; 320 g/ha): 90% | Pre-emergence action against VERPE in % [14]: 100% | Pre-emergence action against ALOMY ([15]; 80 g/ha): 80% | Pre-emergence action against ALOMY ([15]; 320 g/ha): 100% | Post-emergence action against SETVI in % ([16]; dosage 80 g/ha): 80% | Post-emergence action against SETVI in % ([16]; dosage 320 g/ha): 80% | Pre-emergence action against AMARE in % ([17]; 80 g/ha): 100% | Pre-emergence action against AMARE in % ([17]; 320 g/ha): 100% | Post-emergence action against VERPE in % ([18]; 320 g/ha, VERPE): 90% | Post-emergence action against VERPE in % ([18]; dosage 80 g/ha): 80% | Pre-emergence action against LOLRI in % [19]: 80% | Post-emergence action against MATIN in % ([20]; dosage 80 g/ha): 80% | Post-emergence action against MATIN in % ([20]; dosage 320 g/ha): 80%
